The target of one assay is T1, Pig brain tubulin (Sus scrofa, UniProt P02554).
T1 construct: Pig brain tubulin was prepared by two cycles of assembly and disassembly; from tissue; host or cells: pig brain
The assay is described as follows: Microtubule assembly and disassembly assay (tubulin polymerizing activity). Conditions: 0.5 mg/ml tubulin, 37° C., turbidity at 340 nm; for EC50: effective dose that induces 50% tubulin polymerisation, read-out: ED50 (the source's name); for ED90: effective dose that induces 90% tubulin polymerisation. It counts as biochemical. The method, then:
Pig brain tubulin was prepared by two cycles of assembly and disassembly and it was stored in liquid nitrogen in Microtubule Assembly Buffer (MAB: 0.1 M MES, 2.5 mM EGTA, 0.5 mM MgSO4, 0.1 mM EDTA, 0.1 mM DTT pH 6.4). Assembly was monitored by the method of Gaskin et al. (Gaskin F, Cantor C R, Shelanski M L, 1974,: Turbidimetric studies of the in vitro assembly and disassembly of porcine neurotubules. J. Mol. Biol. 89: 737-758). The cuvette (1 cm path) containing 0.5 mg/ml tubulin and 1 mM GTP was shifted to 37° C. and continuous turbidity measurements were made at 340 nm on a spectrophotometer equipped with an automatic recorder and a thermostatically regulated sample chamber. After 30 min CaCl2 (5 mM) was added and disassembly was monitored for 10 mm as decreased turbidity. Scalar doses of test compounds were monitored at regular intervals of 15 min.
(ED50 and ED90) was calculated on this curve.

Assay [1] deals with Human colon carcinoma HCT116 cells. In words: Cytotoxicity on HCT116 tumor cell line. It counts as cell-based.
The test system of the next assay is A2780 cells. The assay is described as follows: Cytotoxicity (SRB colorimetric assay) on A2780 cells. It counts as cell-based. The conditions noted are these: 72 h incubation, concentration inhibiting cell proliferation by 50%. The method, then:
(§1) A2780 cells (2000/well) were seeded in multiwell plates (96 wells) in the presence of 200 μl of the complete medium RPMI 1640+10% FCS. After 24 h, the cells were treated with the compounds: the compounds' solution (200×) was prepared in DMSO 100% and 1 μl/well was added. 5 scalar concentrations for each compound were tested in four replicates. The cells were incubated at 37° C., 5% CO2 for 72 h.
(§2) Colorimetric assay (SRB: sulforhodamine B): cell cultures were fixed with trichloroacetic acid, stained with 0.4% SRB dissolved in 1% acetic acid. Unbound dye was removed by four washes with 1% acetic acid and protein-bound dye was extracted with 10 mM Tris base for determination of optical density in a 96-well microtiter plate reader. IC50 and IC90 (concentration inhibiting cell proliferation by 50 or 90%) were determined by data analysis in the Microsoft Excel 97 program.

The test system of assay [2] is Human colon carcinoma HT29 cells. The assay is described as follows: Cytotoxicity on HT29 tumor cell line. It counts as cell-based. As for the experimental part: as §1, §2
Human colon carcinoma HT29 cells were also used to study the cytotoxicity of the compounds of the present invention.

Read-outs that look alike come from different tables or passages of the source.

T1 sequence (P02554 whole entry): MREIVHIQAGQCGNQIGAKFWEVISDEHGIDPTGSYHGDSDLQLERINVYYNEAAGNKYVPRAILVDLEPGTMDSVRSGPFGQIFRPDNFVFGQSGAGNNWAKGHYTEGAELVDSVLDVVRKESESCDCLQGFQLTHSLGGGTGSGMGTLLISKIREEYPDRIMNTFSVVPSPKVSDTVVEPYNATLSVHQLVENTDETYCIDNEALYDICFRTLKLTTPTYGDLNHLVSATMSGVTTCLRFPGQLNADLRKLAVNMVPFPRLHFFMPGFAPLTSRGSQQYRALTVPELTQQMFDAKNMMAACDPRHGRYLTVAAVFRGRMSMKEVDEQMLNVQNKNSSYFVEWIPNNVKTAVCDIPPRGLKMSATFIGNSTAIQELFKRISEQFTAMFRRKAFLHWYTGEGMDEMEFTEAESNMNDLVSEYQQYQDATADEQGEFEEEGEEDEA
T1 sequence (P02550 whole entry partner): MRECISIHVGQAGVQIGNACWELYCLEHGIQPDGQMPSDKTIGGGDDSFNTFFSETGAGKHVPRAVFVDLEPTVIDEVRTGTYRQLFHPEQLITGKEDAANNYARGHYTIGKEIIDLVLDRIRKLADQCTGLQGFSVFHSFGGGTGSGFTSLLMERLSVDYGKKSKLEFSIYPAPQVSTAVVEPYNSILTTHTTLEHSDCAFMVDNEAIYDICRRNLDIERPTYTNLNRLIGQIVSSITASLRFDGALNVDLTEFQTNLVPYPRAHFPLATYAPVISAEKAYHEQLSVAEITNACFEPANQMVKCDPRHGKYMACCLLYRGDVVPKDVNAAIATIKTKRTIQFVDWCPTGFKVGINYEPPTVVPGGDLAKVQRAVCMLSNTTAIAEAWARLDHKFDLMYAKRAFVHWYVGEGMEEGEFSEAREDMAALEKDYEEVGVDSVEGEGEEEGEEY

As to `CC(=O)O[C@@H]1C/C=C\C[C@@H](OC(=O)/C=C/c2cn(C)cn2)C[C@H]2C(C)=CC[C@H](C(C)C)[C@H]2C1` [Example 12, 3-(1-Methyl-1H-imidazol-4-yl)-acrylic acid 11-acetoxy-1-isopropyl-4-methyl-1,2,4a,5,6,7,10,11,12,12a-decahydro-benzocyclodecen-6-yl ester], at Pig brain tubulin, the EC50 was 2 µM and the “ED90” value was found to be 10.0 µM. Further, the midpoint of inhibition in assay [1] (Homo sapiens, HCT-116), the IC50, lay at 12 µM. Besides, in the assay with A2780 cells (Homo sapiens), the IC50 (as a rule, the concentration that inhibits the measured activity by half) amounted to 4 µM.
For `CO[C@H]1C=CC[C@@H](OC(=O)/C=C/c2cn(C)cn2)C[C@H]2C(C)=CC[C@H](C(C)C)[C@H]2C[C@@H]1OC(=O)C(C)(C)C` [Example 27, (E)-3-(1-Methyl-1H-imidazol-4-yl)-acrylic acid [(1R,4aR,6R,10S,11S,12aR)-11-(2,2-dimethyl-propionyloxy)-1-isopropyl-10-methoxy-4-methyl-1,2,4a,5,6,7,10,11,12,12a-decahydro-benzocyclodecen-6-yl}ester], at Pig brain tubulin, the EC50 stood at 3 µM. In addition, the IC50 in assay [1] (Homo sapiens, HCT-116) was 10 to 25 µM; in assay [2] (Homo sapiens, HT-29), 7 µM; in the assay with A2780 cells (Homo sapiens), < 5 µM.
As to `C=C1C/C=C\C[C@@H](OC(=O)/C=C/c2cn(C)cn2)C[C@H]2C(C)=CC[C@H](C(C)C)[C@H]2C1` [Example 19], the EC50 on Pig brain tubulin is 5 µM. Moreover, the “ED90” value at Pig brain tubulin is 16.0 µM. The IC50 in assay [1] (Homo sapiens, HCT-116) is 5 µM; in assay [2] (Homo sapiens, HT-29), 6 µM; in the assay with A2780 cells (Homo sapiens), 4 µM.
In the case of `CC1=CC[C@H](C(C)C)[C@H]2CC(=O)C/C=C\C[C@@H](OC(=O)/C=C/c3cn(C)cn3)C[C@@H]12` [Example 16, (E)-3-(1-Methyl-1H-imidazol-4-yl)-acrylic acid [(1R,4aR,6R,12aR)-1-isopropyl-4-methyl-11-oxo-1,2,4a,5,6,7,10,11,12,12a-decahydro-benzocyclodecen-6-enyl]ester], the EC50 on Pig brain tubulin turned out to be 0.2 µM. The “ED90” value at Pig brain tubulin stood at 1.2 µM. For the same compound, the IC50 is 35 to 60 µM in assay [1] (Homo sapiens, HCT-116); 30 µM in assay [2] (Homo sapiens, HT-29); 40 µM in the assay with A2780 cells (Homo sapiens).
As to `CC1=CC[C@H](C(C)C)[C@H]2C[C@H](OC(=O)C(C)(C)C)[C@@H](O)C=CC[C@@H](OC(=O)C=Cc3cn(C)cn3)C[C@@H]12` [Example 34, 3-(1-Methyl-1H-imidazol-4-yl)-acrylic acid [(1R,4aR,6R,10S,10S,12aR)-11-(2,2-dimethyl-propionyloxy)-10-hydroxy-1-isopropyl-4-methyl-1,2,4a,5,6,7,10,11,12,12a-decahydro-benzocyclodecen-6-yl}ester], the EC50 on Pig brain tubulin amounted to 1 µM. The “ED90” value on Pig brain tubulin is 1.8 µM. Besides, the IC50 in assay [1] stood at 4 µM; in assay [2], 5 µM; with A2780 cells it was 4 µM.
As to `CC(=O)O[C@H]1C=CC[C@@H](OC(=O)/C=C/c2cn(C)cn2)C[C@H]2C(C)=CC[C@H](C(C)C)[C@H]2C[C@@H]1OC(=O)C(C)(C)C` [Example 30, (E)-3-(1-Methyl-1H-imidazol-4-yl)-acrylic acid [(1R,4aR,6R,10S,11S,12aR)-10-acetoxy-11-(2,2-dimethyl-propionyloxy)-1-isopropyl-4-methyl-1,2,4a5,6,7,10,11,12,12a-decahydro-benzocyclodecen-6-yl]ester], at Pig brain tubulin, the EC50 amounted to 1 µM and the “ED90” value turned out to be 1.7 µM.

The values are drawn from patent publication US20050038112A1, “Simplified sarcondictyn derivatives as anti-tumor agents” (priority 2001, published 2005).
